Source: US11414401B2, “Substituted 2-anilinopyrimidine derivatives as EGFR modulators” (Beta Pharma, Inc., priority 2014, dated 2022)
Like-named read-outs stand apart in the source and are kept apart here. Values belong to the compound of their own block, whether it stands above or below them.

Key:
A431 (wild type) cells = experiment: Cell proliferation assay (Alamar Blue, 72 h), A431; type: cell-based; conditions: Homo sapiens, read-out: A431 IC50
Experimental: (§1) Cell Culture. […] The cell monolayer was dispersed by 5 minute exposure to 0.25% Trypsin/EDTA solution (Life Technologies) and the solution was neutralized with a fresh growth medium. […] The cells maintained normal morphology and growth characteristics during the period of the study. Cell Proliferation Assay. Dispersed cells were pooled by centrifugation (200×g, 8 min.) and resuspended in a fresh medium to a concentration of 1.00 E+04 cells/ml. 200 μL of the cell suspension was added to each well (2,000 cells/well) of a black-walled 96 well plate and the cells were allowed to attach overnight under normal culture conditions. […] The final DMSO concentration in the well was 0.5% v/v. Vehicle, non-treated, and cell-free wells were also included in the assay. The cells were cultured under normal conditions for 72 hours with daily visual inspection. Cell proliferation was measured using the dye Alamar Blue (resazurin). Resazurin is reduced by cellular enzymes to resorufin, which is fluorescent (544 nm excitation, 612 nm emission). Fluorescence intensity was proportional to cell number. A resazurin stock solution was prepared in a phosphate-buffered saline (PBS) to a stock concentration of 440 μM. The resazurin stock solution (40 μL each) was added to each well at hour 67 of the 72 hour incubation period. The plate was returned to normal culture conditions and fluorescence measurements were collected using a Cytation 3 multimode plate reader (Biotek) at 72 hours. Data Analysis. Fluorescence measurements were normalized against cell-free (background) readings and the total growth over 72 hour time period was determined versus the average of the vehicle control wells. Average and standard deviation values were determined for each condition (n=3).

[1] = system: H1975 (double mutant) cells; experiment: Cell proliferation assay (Alamar Blue, 72 h), H1975; type: cell-based; conditions: Homo sapiens, read-out: H1975 IC50
Experimental: as §1

[2] = system: subcutaneously-implanted H1975 human non-small cell lung carcinoma xenographs (L858R/T790M double mutation); experiment: H1975 mouse xenograft model, tumor growth inhibition; conditions: for % tumor growth inhibition (% TGI): 100 mg/kg oral; for tumor growth delay: P<0.05
[3] = system: subcutaneously-implanted H1975 human non-small cell lung carcinoma xenographs (L858R/T790M double mutation); conditions: po, 25 mg/kg, 336 h
[4] = system: subcutaneously-implanted HCC827 human non-small cell lung carcinoma xenographs (delE746-A750 activating mutation); experiment: HCC827 mouse xenograft model, tumor growth inhibition; type: in vivo, female nude mice; conditions: 6.25 mg/kg orally once a day for 14 days (days 13-26)
Text: Antitumor Activity of Example 1 in the HCC827 Mouse Xenograft Model.

[5] = A-431, A431 (wild type) cells, 72 h proliferation
[6] = NCI-H1975, H1975 (double mutant) cells, 72 h proliferation
[7] = 100 mg/kg orally once a day for 14 days (days 7-20)
[8] = 6.25 mg/kg orally once a day for 14 days (days 6-19)
[9] = 12.5 mg/kg orally once a day for 14 days (days 6-19)
[10] = 25 mg/kg orally once a day for 14 days (days 6-19)
[11] = all doses (6.25, 12.5 and 25 mg/kg) orally once a day for 14 days

Compound: C=CC(=O)Nc1cc(Nc2nccc(-c3cn(C)c4ccccc34)n2)c(OC)cc1SCCN(C)C [Example 2, N-(2-((2-(Dimethylamino)ethyl)thio)-4-methoxy-5-((4-(1-methyl-1H-indol-3-yl)pyrimidin-2-yl)amino)phenyl)acrylamide]
% tumor growth inhibition (% TGI) ([2]; from median tumor burdens on day 10): 110.5%
% tumor growth inhibition (% TGI) ([2]; from median tumor burdens on day 14): 116.6%
% tumor growth inhibition (% TGI) ([2]; from median tumor burdens on day 17): 116.6%
incidence of complete tumor regression [2, 7]: 100%
mice remaining tumor free (TFS) at the completion of the study [2, 7]: 12.5%
time to evaluation size (750 mm^3) [2, 7]: 39.6 days
tolerability [2, 7]: well tolerated
tumor growth delay (T-C) [2, 7]: 22.2 days
IC50 (A431 (wild type) cells; [5]): > 1000 nM
IC50 [1, 6]: < 100 nM

Compound: C=CC(=O)Nc1cc(Nc2nccc(-c3cn(C)c4ccccc34)n2)c(OC)cc1OC [Example 3, N-(2,4-Dimethoxy-5-((4-(1-methyl-1H-indol-yl)pyrimidin-2-yl)amino)-phenyl)acrylamide]
IC50 (A431 (wild type) cells; [5]): > 1000 nM
IC50 [1, 6]: 100 to 1000 nM

Compound: C=CC(=O)Nc1cc(Nc2nccc(-c3cn(CCF)c4ccccc34)n2)c(OC)cc1OCCN(C)C [Example 11, N-(2-(2-(Dimethylamino)ethoxy)-5-((4-(1-(2-fluoroethyl)-1H-indolyl-3-yl)pyrimidin-2-yl)amino)-4-methoxyphenyl)acrylamide]
IC50 (A431 (wild type) cells; A-431, 72 h): 100 to 1000 nM
IC50 ([1]; NCI-H1975, 72 h): < 100 nM

Compound: C=CC(=O)Nc1cc(Nc2nccc(-c3cn(C)c4ccccc34)n2)c(OC)cc1OCCN(C)C [Example 1, N-(2-(2-(Dimethylamino)ethoxy)-4-methoxy-5-((4-(1-methyl-1H-indol-3-yl)pyrimidin-2-yl)amino)phenyl)acrylamide]
median time to evaluation size [2, 8]: 28.9 days
tumor growth delay [2, 8]: 14 days
median time to evaluation size [2, 9]: 31.6 days
tumor growth delay [2, 9]: 16.7 days
incidence of complete regressions [2, 10]: 100%
median time to evaluation size [2, 10]: 34.3 days
tumor growth delay [2, 10]: 19.3 days
tolerability [2, 11]: well tolerated
treatment-related mortality [2, 11]: no treatment-related mortality
IC50 (A431 (wild type) cells; [5]): > 1000 nM
tumor free survivors [3]: 10%
IC50 [1, 6]: < 100 nM
incidence of complete tumor regression at the completion of dosing [4]: 100%
median time to evaluation size [4]: 61.5 days
tolerability [4]: well tolerated
treatment-related mortality [4]: no treatment-related mortality
tumor growth delay ([4]; P<0.05): 33.2 days

Compound: C=CC(=O)Nc1cc(Nc2nccc(-c3cn(C)c4ccccc34)n2)c(OC)cc1CCCN(C)C [Example 4, N-(2-(3-(Dimethylamino)propyl)-4-methoxy-5-((4-(1-methyl-1H-indol-3-yl)pyrimidin-2-yl)amino)phenyl)acrylamide]
IC50 (A431 (wild type) cells; [5]): > 1000 nM
IC50 [1, 6]: < 100 nM

Second part, the compound after the results:

IC50 (A431 (wild type) cells; [5]): 100 to 1000 nM
IC50 [1, 6]: < 100 nM
Compound: C=CC(=O)Nc1cc(Nc2nccc(-c3nn(C)c4ccccc34)n2)c(OC)cc1OCCN(C)C [Example 10, N-(2-(2-(Dimethylamino)ethoxy)-4-methoxy-5-((4-(1-methyl-1H-indazol-3-yl)pyrimidin-2-yl)amino)phenyl)acrylamide]

IC50 (A431 (wild type) cells; [5]): 100 to 1000 nM
IC50 [1, 6]: < 100 nM
Compound: C=CC(=O)Nc1cc(Nc2nccc(-c3c(C)n(C)c4ccccc34)n2)c(OC)cc1OCCN(C)C [Example 8, N-(5-((4-(1,2-Dimethyl-1H-indol-3-yl)pyrimidin-2-yl)amino)-2-(2-(dimethylamino)ethoxy)-4-methoxyphenyl)acrylamide]

IC50 (A431 (wild type) cells; [5]): > 1000 nM
IC50 [1, 6]: < 100 nM
Compound: C=CC(=O)Nc1cc(Nc2nccc(-c3cnn4ccccc34)n2)c(OC)cc1OCCN(C)C [Example 9, N-(2-(2-(Dimethylamino)ethoxy)-4-methoxy-5-((4-(pyrazolo[1,5-a]pyridin-3-yl)pyrimidin-2-yl)amino)phenyl)acrylamide]

IC50 (A431 (wild type) cells; [5]): 100 to 1000 nM
IC50 [1, 6]: 100 to 1000 nM
Compound: C=CC(=O)Nc1cc(Nc2nccc(-c3c4ccccc4nn3C)n2)c(OC)cc1OCCN(C)C [Example 5, N-(2-(2-(Dimethylamino)ethoxy)-4-methoxy-5-((4-(2-methyl-2H-indazol-3-yl)pyrimidin-2-yl)amino)phenyl)acrylamide]
